Test results taken from patent publication US11655243B2, “Pyridine and pyrazine derivatives as preferential cannabinoid 2 agonists” (HOFFMANN-LA ROCHE INC., priority 2018, dated 2023).

The molecules below were run against human CNR2 receptors (CB2 receptor) (Homo sapiens (Human), UniProt P34972) (assay: Radioligand binding assay, human CB2 (CNR2)). Conditions: membranes of HEK cells expressing human CNR2, 2.6 nM [3H]-CP-55,940 radioligand; read-out: Binding assay human CB2 Ki.
human CNR2 receptors (CB2 receptor), sequence (P34972 whole entry): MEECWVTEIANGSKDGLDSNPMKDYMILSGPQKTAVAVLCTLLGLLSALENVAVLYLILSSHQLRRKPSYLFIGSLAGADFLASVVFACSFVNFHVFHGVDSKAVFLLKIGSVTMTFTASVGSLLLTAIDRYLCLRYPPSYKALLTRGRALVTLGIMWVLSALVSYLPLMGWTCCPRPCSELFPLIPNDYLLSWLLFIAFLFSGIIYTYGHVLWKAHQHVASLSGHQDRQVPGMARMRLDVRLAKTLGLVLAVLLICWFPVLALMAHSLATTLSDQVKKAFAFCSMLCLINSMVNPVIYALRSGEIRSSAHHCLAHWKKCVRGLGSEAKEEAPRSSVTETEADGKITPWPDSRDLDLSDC
Experimental: Radioligand Binding Assay
The affinity of the compounds of the invention for cannabinoid CB1 receptors was determined using recommended amounts of membrane preparations (PerkinElmer) of human embryonic kidney (HEK) cells expressing the human CNR1 or CNR2 receptors in conjunction with 1.5 or 2.6 nM [3H]-CP-55,940 (Perkin Elmer) as radioligand, respectively. Binding was performed in binding buffer (50 mM Tris, 5 mM MgCl2, 2.5 mM EDTA, and 0.5% (wt/vol) fatty acid free BSA, pH 7.4 for CB1 receptor and 50 mM Tris, 5 mM MgCl2, 2.5 mM EGTA, and 0.1% (wt/vol) fatty acid free BSA, pH 7.4 for CB2 receptor) in a total volume of 0.2 ml for 1 h at 30° C. shaking. The reaction was terminated by rapid filtration through microfiltration plates coated with 0.5% polyethylenimine (UniFilter GFB filter plate; Packard). Bound radioactivity was analyzed for Ki using nonlinear regression analysis (Activity Base, ID Business Solution, Limited), with the Kd values for [3H]CP55,940 determined from saturation experiments. The compounds of formula (I) show an excellent affinity for the CB2 receptor.
The compounds according to formula (I) have an activity in the above assay (Ki) between 0.5 nM and 10 μM. Particular compounds of formula (I) have an activity in the above assay (Ki) between 0.5 nM and 3 μM. Other particular compounds of formula (I) have an activity in the above assay (Ki) between 0.5 nM and 100 nM.
Work on `CCOC(=O)C(CC)(CC)NC(=O)c1ccc(N2CC(OC)C2)c(OCC(C)(C)COCF)n1` [Example 8, Ethyl 2-ethyl-2-({6-[3-(fluoromethoxy)-2,2-dimethylpropoxy]-5-(3-methoxyazetidin-1-yl)pyridine-2-carbonyl}amino)butanoate] yielded a Ki of 143 nM. `CCOC(=O)C(CC)(CC)NC(=O)c1ccc(N2CC(OC)C2)c(OC[C@@H]2C[C@H]2COCF)n1` [Example 10, (−)-trans-Ethyl 2-ethyl-2-{[6-({-2-[(fluoromethoxy)methyl]cyclopropyl}methoxy)-5-(3-methoxyazetidin-1-yl)pyridine-2-carbonyl]amino}butanoate] showed a Ki of 8.2 nM. In the case of `CCC(CC)(NC(=O)c1ccc(N2CC(OC)C2)c(OC[C@@H]2C[C@H]2CO)n1)C(=O)OCF` [Example 11, (−)-trans-Fluoromethyl 2-ethyl-2-{[6-{[(1R,2R)-2-(hydroxymethyl)cyclopropyl]methoxy}-5-(3-methoxyazetidin-1-yl)pyridine-2-carbonyl]amino}butanoate], the Ki is reported as 9.7 nM. With `CCC(CC)(NC(=O)c1ccc(N2CC(OC)C2)c(OC[C@@H]2C[C@H]2CO)n1)C(=O)OCCF` [Example 14, (−)-trans-2-Fluoroethyl 2-ethyl-2-{[6-{[-2-(hydroxymethyl)cyclopropyl]methoxy}-5-(3-methoxyazetidin-1-yl)pyridine-2-carbonyl]amino}butanoate] the Ki was 11.4 nM. `CCC(CC)(NC(=O)c1ccc(N2CC(OC)C2)c(OC[C@H]2C[C@@H]2CO)n1)C(=O)OCCCF` [Example 15, 3-Fluoropropyl 2-ethyl-2-{[6-{[(1S,2S)-2-(hydroxymethyl)cyclopropyl]methoxy}-5-(3-methoxyazetidin-1-yl)pyridine-2-carbonyl]amino}butanoate] gave a Ki of 0.7 nM. `CCC(CC)(NC(=O)c1ccc(N2CC(OC)C2)c(OC[C@@H]2C[C@H]2CO)n1)C(=O)OCCCF` [Example 16, 3-Fluoropropyl 2-ethyl-2-{[6-{[(1R,2R)-2-(hydroxymethyl)cyclopropyl]methoxy}-5-(3-methoxyazetidin-1-yl)pyridine-2-carbonyl]amino}butanoate] showed a Ki of 18.8 nM. With `COC1CN(c2ccc(C(=O)N[C@H](COCCF)CC(C)C)nc2OCC2COC2)C1` [Example 17, N-[(2S)-1-(2-Fluoroethoxy)-4-methylpentan-2-yl]-5-(3-methoxyazetidin-1-yl)-6-[(oxetan-3-yl)methoxy]pyridine-2-carboxamide] the Ki was 331 nM. `CC(C)C[C@@H](COCCF)NC(=O)c1ccc(N2CCCC2)c(OCC2COC2)n1` [Example 18, N-[(2S)-1-(2-Fluoroethoxy)-4-methylpentan-2-yl]-6-[(oxetan-3-yl)methoxy]-5-(pyrrolidin-1-yl)pyridine-2-carboxamide] gave a Ki of 21 nM. Work on `[2H]C([2H])(F)C([2H])([2H])C([2H])([2H])OC(=O)C(CC)(CC)NC(=O)c1ccc(N2CC(OC)C2)c(OC[C@H]2C[C@@H]2CO)n1` [Example 19, (1,1,2,2,3,3-Hexadeuterio-3-fluoro-propyl) 2-ethyl-2-[[6-[[(1S,2S)-2-(hydroxymethyl)cyclopropyl]methoxy]-5-(3-methoxyazetidin-1-yl)pyridine-2-carbonyl]amino]butanoate] yielded a Ki of 0.8 nM. Work on `C=CC(C=C)(NC(=O)c1ccc(N2CC(OC)C2)c(OC[C@H]2C[C@@H]2CO)n1)C(=O)OCCCF` [Example 20, 3-Fluoropropyl 2-[6-[[(1S,2S)-2-(hydroxymethyl)cyclopropyl]methoxy]-5-(3-methoxyazetidin-1-yl)pyridine-2-carbonylamino]-2-vinyl-but-3-enoate] yielded a Ki of 525 nM. In the case of `CCC(CC)(NC(=O)c1ccc(N2CC(OC)C2)c(OC[C@H]2C[C@@H]2CO)n1)C(=O)OCCCOS(=O)(=O)c1ccc(C)cc1` [Example 23, 3-(p-Tolylsulfonyloxy)propyl 2-ethyl-2-[[6-[[(1S,2S)-2-(hydroxymethyl)cyclopropyl]methoxy]-5-(3-methoxyazetidin-1-yl)pyridine-2-carbonyl]amino]butanoate], the Ki is reported as 21.6 nM. `[2H]C([2H])(OC(=O)C(CC)(CC)NC(=O)c1ccc(N2CC(OC)C2)c(OC[C@H]2C[C@@H]2CO)n1)C([2H])([2H])C([2H])([2H])OS(=O)(=O)c1ccc(C)cc1` [Example 24, [1,1,2,2,3,3-Hexadeuterio-3-(p-tolylsulfonyloxy)propyl] 2-ethyl-2-[[6-[[(1S,2S)-2-(hydroxymethyl)cyclopropyl]methoxy]-5-(3-methoxyazetidin-1-yl)pyridine-2-carbonyl]amino]butanoate] showed a Ki of 65.5 nM. Molecule `CCC(CC)(NC(=O)c1ccc(N2CC(OC)C2)c(OC[C@H]2C[C@@H]2CO)n1)C(=O)N[C@H](CO)CC(C)C` [Example 26, N-[1-Ethyl-1-[[(1S)-1-(hydroxymethyl)-3-methyl-butyl]carbamoyl]propyl]-6-[[(1S,2S)-2-(hydroxymethyl)cyclopropyl]methoxy]-5-(3-methoxyazetidin-1-yl)pyridine-2-carboxamide] has a Ki of 130 nM. With `CCC(CC)(NC(=O)c1ccc(N2CC(OC)C2)c(OC[C@H]2C[C@@H]2COCc2ccccc2)n1)C(=O)OCCCF` [Example 32, 3-Fluoropropyl 2-[[6-[[(1S,2S)-2-(benzyloxymethyl)cyclopropyl]methoxy]-5-(3-methoxyazetidin-1-yl)pyridine-2-carbonyl]amino]-2-ethyl-butanoate] the Ki was 246 nM. For `CCC(CC)(NC(=O)c1ccc(N2CCCC2)c(OCC2(CO)COC2)n1)C(=O)OCF` [Example 33, Fluoromethyl 2-ethyl-2-[[6-[[3-(hydroxymethyl)oxetan-3-yl]methoxy]-5-pyrrolidin-1-yl-pyridine-2-carbonyl]amino]butanoate], the Ki was 348 nM. For `CCC(CC)(NC(=O)c1ccc(N2CCCC2)c(OCC2(CO)COC2)n1)C(=O)OCCF` [Example 34, 2-Fluoroethyl 2-ethyl-2-(6-((3-(hydroxymethyl)oxetan-3-yl)methoxy)-5-(pyrrolidin-1-yl)picolinamide)butanoate], the Ki was 607 nM. For `CCC(CC)(NC(=O)c1ccc(N2CCCC2)c(OCC2(CO)COC2)n1)C(=O)OCCCF` [Example 35, 3-Fluoropropyl 2-ethyl-2-(6-((3-(hydroxymethyl)oxetan-3-yl)methoxy)-5-(pyrrolidin-1-yl)picolinamido)butanoate], the Ki was 1390 nM.
